The values below come from patent publication US8183388B2, “Androgen receptor modulator and uses thereof” (Eli Lilly and Company, priority 2009, dated 2012).

Each structure is given as a SMILES string. Some results are limits rather than exact numbers.

The target in assay [1] is T1, human MR (mineralocorticoid receptor) (Homo sapiens, UniProt P08235).
T1 construct: expressed in transfected cells; host or cells: HEK293 (lysate, 293-MR)
T1 sequence (P08235 1-984): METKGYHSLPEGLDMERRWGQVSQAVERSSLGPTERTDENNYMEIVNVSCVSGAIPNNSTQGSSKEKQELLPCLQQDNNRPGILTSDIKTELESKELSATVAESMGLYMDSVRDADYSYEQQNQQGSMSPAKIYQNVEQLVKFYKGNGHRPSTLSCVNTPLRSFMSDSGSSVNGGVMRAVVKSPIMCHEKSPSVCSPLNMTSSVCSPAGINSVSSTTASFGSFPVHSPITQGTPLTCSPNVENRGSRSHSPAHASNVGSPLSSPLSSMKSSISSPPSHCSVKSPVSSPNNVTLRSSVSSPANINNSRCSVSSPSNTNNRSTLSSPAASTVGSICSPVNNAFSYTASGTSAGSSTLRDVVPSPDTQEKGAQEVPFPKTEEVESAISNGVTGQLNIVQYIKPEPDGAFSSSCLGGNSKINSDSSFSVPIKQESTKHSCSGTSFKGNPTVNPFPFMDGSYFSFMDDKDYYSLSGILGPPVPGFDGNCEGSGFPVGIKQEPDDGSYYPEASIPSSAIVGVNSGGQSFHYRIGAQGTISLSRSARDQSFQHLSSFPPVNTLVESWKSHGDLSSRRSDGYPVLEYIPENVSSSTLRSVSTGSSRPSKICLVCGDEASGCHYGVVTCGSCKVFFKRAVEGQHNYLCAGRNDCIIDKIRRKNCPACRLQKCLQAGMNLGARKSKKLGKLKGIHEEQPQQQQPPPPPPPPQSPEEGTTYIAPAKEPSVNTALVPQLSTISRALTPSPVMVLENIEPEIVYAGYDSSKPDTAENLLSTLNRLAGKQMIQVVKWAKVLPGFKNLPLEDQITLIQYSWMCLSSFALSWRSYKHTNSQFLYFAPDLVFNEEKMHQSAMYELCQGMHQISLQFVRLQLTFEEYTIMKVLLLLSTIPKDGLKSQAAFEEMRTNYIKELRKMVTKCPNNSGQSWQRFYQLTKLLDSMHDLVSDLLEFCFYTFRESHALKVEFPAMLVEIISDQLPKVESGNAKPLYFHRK
In words: Steroid hormone nuclear receptor binding assay, MR. Conditions: HEK293 lysate overexpressing human MR, [3H]-aldosterone. The procedure:
Cell lysates from human embryonic kidney HEK293 cells overexpressing human MR (mineralocorticoid receptor), GR (glucocorticoid receptor), AR (androgen receptor), or PR (progesterone receptor) are used for receptor-ligand competition binding assays to determine Ki values. Typical procedures are provided below
Briefly, steroid receptor competition binding assays are run in a buffer containing 20 mM HEPES buffer (pH=7.6), 0.2 mM EDTA, 75 mM NaCl, 1.5 mM MgCl2, 20% glycerol, 20 mM sodium molybdate, 0.2 mM DTT (dithiothreitol), 20 μg/mL aprotinin and 20 μg/mL leupeptin (assay buffer). Typically, steroid receptor binding assays include radio-labeled ligands, such as 0.25 nM [^3H]-aldosterone for MR binding, 0.3 nM [^3H]-dexamethasone for GR binding, 0.36 nM [^3H]-methyltrienolone for AR binding, and 0.29 nM [^3H]-methyltrienolone for PR binding, and either 20 μg 293-MR lysate, 20 μg 293-GR lysate, 22 μg 293-AR lysate, or 40 μg 293-PR lysate per well. Assays are typically run in 96-well format. Competing test compounds are added at various concentrations ranging from about 0.01 nM to 10 μM. Non-specific binding is determined in the presence of 500 nM aldosterone for MR binding, 500 nM dexamethasone for GR binding, or 500 nM methyltrienolone for AR and PR binding. […] After an incubation of 2 hours, plates are read in a Wallac Microbeta counter. […]

Assay [2] deals with castrated (GDX) male Sprague Dawley rats. Put plainly: In vivo model of efficacy and selectivity (castrated rats, tissue wet weights). The settings on record: for mean normalized LA wet weight value / mean normalized bulbocavernous wet weight value / mean normalized prostate wet weight value: two week treatment, n=6, wet weight divided by body weight. The procedure:
Eight week old male Sprague Dawley rats are castrated (gonadectomized or “GDX”) according to approved procedures and allowed to waste for eight weeks. Age-matched sham-operated […] are also prepared. Animals are housed in a temperature-controlled room (24° C.) with a reversed 12 hour light/dark cycle and water and food are available ad libitum.
Animals are randomized based on body weight prior to ascribing a test slot. Test compound in vehicle, or vehicle alone, is administered daily by subcutaneous injection to the castrated 16 week old rats (body weight about 380-400 g) using a conventional vehicle such as 5% DMSO/95% soybean oil. Sham operated rats treated with vehicle alone are used as a treatment positive controls, whereas the castrated rats treated only with vehicle are used as treatment negative control. A separate cohort of castrated animals are treated with testosterone as a comparator.
Test animals are dosed daily over a two or eight week timeframe with, for example, 0.1, 0.3, or 1.0 mg/kg per day of the compound of the present invention, or weekly with 10 mg/kg per week of testosterone (sesame oil vehicle) After the treatment period the animals are sacrificed and the wet weight of the levator ani (LA) muscle, the prostate and the bulbocavernous muscle from each animal is determined (after weighing, the bulbocavernous muscle may be flash frozen in liquid nitrogen for later use in measuring neuronal nitric oxide synthase mRNA, as described below). The wet weights are then normalized by dividing each individual wet weight by the body weight of the corresponding animal at the end of the study. The normalized values from the treatment animals are then compared to the normalized values from the castrated, vehicle-only control group or the sham group. As an indicator of tissue selective activity, the wet weight of the prostate from test animals may be similarly compared to the wet weight of the prostate from the control groups or the testosterone-treated comparator group.

For `CC(C)OC(=O)N[C@H]1Cc2c(n(C[C@H]3OCC[C@@H]3O)c3ccc(C#N)cc23)C1` [compound of Formula (I), [(S)-7-Cyano-4-((2R,3S)-3-hydroxytetrahydrofuran-2-ylmethyl)-1,2,3,4-tetrahydrocyclopenta[b]indol-2-yl]-carbamic acid isopropyl ester], the Ki in assay [1] is greater than 4 µM. The “mean normalized LA wet weight value” in assay [2] (0.1 mg/kg per day s.c.) is listed as “about 0.44”; in assay [2] (0.3 mg/kg per day s.c.), “about 0.57”; in assay [2] (1.0 mg/kg per day s.c.), “about 0.68”. In addition, the “mean normalized bulbocavernous wet weight value” is listed as “about 0.77” in assay [2] (0.1 mg/kg per day s.c.), “about 1.29” in assay [2] (0.3 mg/kg per day s.c.) and “about 1.41” in assay [2] (1.0 mg/kg per day s.c.). Also, the entries for the “mean normalized prostate wet weight value” in assay [2] (0.1 mg/kg per day s.c.), in assay [2] (0.3 mg/kg per day s.c.) and in assay [2] (1.0 mg/kg per day s.c.) were “about 0.04”, “about 0.14” and “about 0.52”, respectively. Further, the “levator ani and bulbocavernous muscle weights in comparison to the castrated control group” value in assay [2] (0.1-1.0 mg/kg per day s.c., two weeks) is reported as “dose dependent increase”. Also, in assay [2] (two weeks, tissue selectivity), the “effect on prostate weight when compared to Sham control and testosterone treated animals” value is “decreased effect”.

A word on the Ki: it is a dissociation constant, usually derived from enzyme kinetics or from competition with a known ligand. Low readings indicate higher affinity, high ones lower affinity.
